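The compound was tested at five concentrations on cells cultured in 96-well plates, with a 48-hour exposure period. The concentration for 50% growth inhibition is given as GI50. At the TGI there is no net growth.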
What was measured:
Assay in all cases: DTP human tumour cell line panel, 48 h
[1] = test system: LOX IMVI melanoma
[2] = test system: K-562 leukemia
[3] = test system: HOP-62 NSCLC
[4] = test system: MDA-MB-231 breast
[5] = test system: NCI-H226 lung
[6] = test system: SW-620 colon
[7] = test system: U251 CNS
[8] = test system: MALME-3M melanoma
[9] = test system: MDA-N
[10] = test system: RPMI-8226 leukemia

Row | SMILES | TGI [1] [µM] | TGI [2] [µM] | TGI [3] [µM] | TGI [4] [µM] | TGI [5] [µM] | TGI [6] [µM] | TGI [7] [µM] | TGI [8] [µM] | TGI [9] [µM] | TGI [10] [µM] | GI50 [3] [µM] | GI50 [4] [µM] | GI50 [5] [µM] | GI50 [7] [µM] | GI50 [8] [µM]
1 | COc1ccc(S(=O)(=O)NC(CCC(=O)NC(N)=O)C(=O)NC(N)=O)cc1 (centres undefined) | > 100 | > 100 | > 100 | > 100 | > 100 | > 100 | > 100 | > 100 | > 100 | > 100 | – | – | – | – | –
2 | CC1(C)C(=O)/C(=C/c2ccccc2)C(C)(C)C1(C)C | > 100 | > 100 | 98.9 | > 100 | > 100 | > 100 | > 100 | > 100 | > 100 | > 100 | – | – | – | – | –
3 | CCNC(=S)N/N=C(/C)c1cccc(/C(C)=N\NC(=S)NCC)n1 | 35.8 | 26.3 | > 100 | > 84.2 | 7.39 | > 100 | 58 | > 44.6 | > 45.8 | 25.7 | – | – | – | – | –
4 | Nc1c(C(=O)O)c2ccc([N+](=O)[O-])cc2c(=O)n1-c1nc2ccccc2s1 | > 100 | > 100 | > 100 | > 100 | > 100 | > 100 | > 100 | > 100 | > 100 | > 100 | – | – | – | – | –
5 | O=S(Nc1ccccc1)c1ccc(Cl)cc1 (centres undefined) | > 100 | > 100 | > 100 | > 100 | > 100 | > 100 | > 100 | > 100 | > 100 | > 100 | – | – | – | – | –
6 | O=C(Nc1cccc2ccccc12)c1cc2ccccc2oc1=O | > 100 | > 100 | 49.4 | 58.1 | 54.4 | > 100 | > 100 | > 100 | > 100 | > 100 | – | – | – | – | –
7 | COc1cccc2c(=O)oc(-c3ccccc3C)nc12 | 36.6 | > 100 | 76.3 | > 100 | 57.8 | > 100 | > 100 | > 100 | 39.1 | > 100 | – | – | – | – | –
8 | CN(Cc1cnc2nc(N)nc(N)c2n1)c1ccc(C(=O)NC(CCC(=O)O)C(=O)O)c2ccccc12 (centres undefined) | > 1000 | > 1000 | – | > 1000 | > 1000 | > 1000 | > 1000 | > 1000 | > 1000 | > 1000 | < 0.0244 | > 1000 | > 1000 | 293 | > 1000
9 | O=c1c2ccc(Cl)cc2oc2c(CSc3ccccc3)cccc12 | > 91.9 | > 100 | > 100 | > 100 | > 100 | > 31.6 | > 100 | > 61.1 | > 100 | 81.3 | – | – | – | – | –
10 | C/C(=N\NC(=S)NC(C)(C)C)c1nc2ncccc2[nH]1 | > 100 | > 100 | > 84.9 | > 100 | 13.9 | > 100 | > 100 | 60.4 | > 100 | > 100 | – | – | – | – | –
11 | CC(=O)OC12c3ccccc3C(c3ccccc31)C1C(=O)N(N=C(C)C)C(=O)C12 (centres undefined) | > 100 | > 100 | > 100 | > 100 | > 100 | > 100 | > 100 | > 100 | > 100 | > 100 | – | – | – | – | –
12 | CC(C)CNP(=O)(NCC(C)C)Oc1ccc(CC(NC(=O)OCc2ccccc2)C(=O)OCc2ccccc2)cc1 (centres undefined) | 32.5 | 59.4 | 30.8 | 34.9 | > 100 | 40.2 | 30.1 | 34.9 | 36 | 40 | – | – | – | – | –
13 | CC(=O)O[C@H]1CC[C@@H](OC(C)=O)[C@H]2[C@H](O)[C@H](O)[C@@H]1n1c(=O)n(-c3ccccc3)c(=O)n12 | > 100 | > 100 | > 100 | > 100 | > 100 | > 100 | > 100 | > 100 | > 100 | > 100 | – | – | – | – | –
14 | [N-]=[N+]=CC(=O)C1CCN(c2ccccc2)C1=O (centres undefined) | > 10 | > 10 | > 10 | > 10 | > 10 | > 10 | > 10 | > 10 | > 10 | > 10 | – | – | – | – | –
15 | Cn1c2c(c3c(=O)[nH]ncc31)Cc1ccccc1-2 | 75.1 | > 100 | > 100 | 98.2 | 61.9 | 91.2 | 85.8 | 44.5 | 34.8 | 69 | – | – | – | – | –
16 | Cc1cc(NC(=O)NC(=O)c2ccccc2NC(=O)CN(C)C)ccc1Oc1ncc(Br)cn1 | > 100 | > 57.8 | > 76.4 | > 78.1 | > 92.7 | > 100 | > 86.6 | > 100 | 0.505 | > 100 | – | – | – | – | –
17 | O=C(O)[C@H]1NC[C@H]2C(Br)=NO[C@@H]12 | > 100 | > 100 | > 100 | > 100 | > 100 | > 100 | > 100 | > 100 | > 100 | > 100 | – | – | – | – | –

Row | SMILES | TGI [1] [µM] | TGI [2] [µM] | TGI [3] [µM] | TGI [4] [µM] | TGI [5] [µM] | TGI [6] [µM] | TGI [7] [µM] | TGI [8] [µM] | TGI [9] [µM] | TGI [10] [µM] | GI50 [3] [µM] | GI50 [4] [µM] | GI50 [5] [µM] | GI50 [7] [µM] | GI50 [8] [µM]
18 | CC1(C)CCC[C@@]2(C)C1CC[C@@]1(CO)O[C@H](C3=CC(=O)OC3O)C[C@H]12 (some centres undefined) | 3.42 | 63.9 | 19.3 | 36.1 | 35.4 | 22.3 | 28.5 | 24.2 | 25.8 | > 36.1 | – | – | – | – | –
19 | CC1=NC(=N)N=C(C)C1N=Nc1ccc2nc(C)[nH]c2c1 (centres undefined) | > 100 | > 100 | > 100 | > 100 | > 100 | > 100 | > 100 | > 100 | > 100 | > 100 | – | – | – | – | –
20 | Cc1n[nH]c(=O)n1-n1cccc1 | > 100 | > 100 | > 100 | > 100 | > 100 | > 100 | > 100 | > 100 | > 100 | > 100 | – | – | – | – | –
21 | CC(=O)Oc1cc2c(cc1OCC(F)(F)F)[C@H]1CC[C@]3(C)[C@@H](OC(C)=O)CC[C@H]3[C@@H]1CC2=O | > 78 | > 100 | > 70 | 60.2 | > 100 | > 92.4 | > 74.1 | 47.9 | > 100 | 68.8 | – | – | – | – | –
22 | O=C(OCCN=c1c2ccccc2ccc2ccccc12)c1cc([N+](=O)[O-])cc([N+](=O)[O-])c1 | > 100 | > 100 | > 100 | > 100 | > 100 | > 100 | > 100 | 66.2 | > 100 | > 100 | – | – | – | – | –
23 | COC(=O)c1c(O)ccc2c1c1c(n2Cc2ccc(OC)cc2)C(=O)c2ccccc2C1 | > 100 | > 100 | > 100 | > 100 | > 100 | > 100 | > 100 | > 100 | > 100 | 31.5 | – | – | – | – | –
24 | C/C(=N/NC(=S)Nc1ccc(C)cc1)c1ccccn1 | 20.8 | 6.09 | 5.55 | 18.7 | 2.6 | 18.6 | 14.8 | 8.71 | 13.8 | 25.7 | – | – | – | – | –
25 | O=c1[nH]c2c(Nc3c4ccccc4nc4ccccc34)c([N+](=O)[O-])c(Nc3c4ccccc4nc4ccccc34)c([N+](=O)[O-])c2[nH]1 | 7.79 | 11.7 | 20.2 | 4.92 | 6.3 | > 100 | 8.35 | 3.33 | 8.49 | 8.27 | – | – | – | – | –
26 | O=C(N/N=C/c1ccccc1)c1c(F)c(F)c(F)c(F)c1F | > 100 | > 100 | > 100 | > 100 | > 100 | > 100 | > 100 | > 100 | > 100 | > 100 | – | – | – | – | –
27 | O=C1Nc2noc(=O)nc2NO1 | > 200 | > 200 | > 200 | > 200 | > 200 | > 200 | > 200 | > 200 | > 200 | > 200 | – | – | – | – | –
28 | Cc1nnc(SCc2nc(C#N)c(C#N)nc2CSc2nnc(C)s2)s1 | 23.3 | > 52.3 | 37.8 | 31.4 | 54.1 | 15.6 | 37.5 | 13 | 49.9 | 18 | – | – | – | – | –
29 | BrC1(c2ccccc2)C[n+]2c(-c3ccccc3)cc(-c3ccccc3)cc2-c2ccccc21 (centres undefined) | 1.82 | 1.48 | 7.41 | 1.63 | 12.2 | 11.4 | 1.2 | 13.2 | 1.69 | 1.13 | – | – | – | – | –
30 | OCCN1CCN(c2nc(N3CCCC3)c3nc(Cl)c(NCc4ccccc4)nc3n2)CC1 | 10.6 | 22 | 8.98 | 25 | 37.8 | 17.5 | 18.2 | 11.7 | 8.47 | 8.35 | – | – | – | – | –
31 | CC(C)Oc1cccc(N2C(CCc3c[nH]c4ccc(Br)cc34)=NS(=O)(=O)c3cnccc32)c1 | > 100 | > 100 | > 100 | > 100 | 97.8 | > 100 | > 100 | > 100 | > 100 | > 100 | – | – | – | – | –
32 | O=C(O)CCCc1ccc2c(c1)C(C(=O)O)CC2 (centres undefined) | > 100 | > 100 | > 100 | > 100 | > 100 | > 100 | > 100 | > 100 | > 100 | > 100 | – | – | – | – | –
33 | Cc1ccc(C(=O)Nc2ccc(CP(=O)(O)O)cc2CP(=O)(O)O)cc1N | > 100 | > 100 | > 100 | > 100 | > 100 | > 100 | > 100 | > 100 | > 100 | > 100 | – | – | – | – | –
